From US11427549B2, “Pyrimidinyloxy benzo-fused compounds as herbicides” (FMC Corporation, priority 2017, dated 2022)

Assays:
[1] = tested on: pigweed (Amaranthus retroflexus); experiment: Test A postemergence, pigweed; assay type: in vivo; conditions: Amaranthus retroflexus, post-emergence, 240 h, 0 to 100 scale (0 no effect, 100 complete control), read-out: Plant response rating, Pigweed; for pest or weed control at 31 g/ha: 31 g ai/ha; for pest or weed control at 125 g/ha: 125 g ai/ha
kochia (Kochia scoparia) [2] = experiment: Test A preemergence, kochia; assay type: in vivo; conditions: Bassia scoparia, pre-emergence, 240 h, 0 to 100 scale (0 no effect, 100 complete control), read-out: Plant response rating, Kochia; for pest or weed control at 31 g/ha: 31 g ai/ha; for pest or weed control at 125 g/ha: 125 g ai/ha
[3] = tested on: barnyardgrass (Echinochloa crus-galli); experiment: Test B flooded paddy test, barnyardgrass; conditions: Echinochloa crus-galli, read-out: Plant response rating, Barnyardgrass (0 to 100 scale, 0 is no effect, 100 is complete control)
kochia (Kochia scoparia) [4] = experiment: Test A postemergence, kochia; assay type: in vivo; conditions: Bassia scoparia, post-emergence, 240 h, 0 to 100 scale (0 no effect, 100 complete control), read-out: Plant response rating, Kochia; for pest or weed control at 31 g/ha: 31 g ai/ha; for pest or weed control at 125 g/ha: 125 g ai/ha
[5] = tested on: ryegrass, Italian (Italian ryegrass, Lolium multiflorum); experiment: Test A preemergence, ryegrass, Italian; assay type: in vivo; conditions: Lolium multiflorum, pre-emergence, 240 h, 0 to 100 scale (0 no effect, 100 complete control), read-out: Plant response rating, Ryegrass, Italian; for pest or weed control at 31 g/ha: 31 g ai/ha; for pest or weed control at 125 g/ha: 125 g ai/ha
[6] = tested on: galium (catchweed bedstraw, Galium aparine); experiment: Test A postemergence, galium; assay type: in vivo; conditions: Galium, post-emergence, 240 h, 0 to 100 scale (0 no effect, 100 complete control), read-out: Plant response rating, Galium; for pest or weed control at 31 g/ha: 31 g ai/ha; for pest or weed control at 125 g/ha: 125 g ai/ha
[7] = tested on: barnyardgrass (Echinochloa crus-galli); experiment: Test A preemergence, barnyardgrass; assay type: in vivo; conditions: Echinochloa crus-galli, pre-emergence, 240 h, 0 to 100 scale (0 no effect, 100 complete control), read-out: Plant response rating, Barnyardgrass; for pest or weed control at 31 g/ha: 31 g ai/ha; for pest or weed control at 125 g/ha: 125 g ai/ha
[8] = tested on: ducksalad (Heteranthera limosa); experiment: Test B flooded paddy test, ducksalad; conditions: Heteranthera limosa, read-out: Plant response rating, Ducksalad (0 to 100 scale, 0 is no effect, 100 is complete control)
[9] = tested on: wheat (Triticum aestivum); experiment: Test A postemergence, wheat; assay type: in vivo; conditions: Triticum aestivum, post-emergence, 240 h, 0 to 100 scale (0 no effect, 100 complete control), read-out: Plant response rating, Wheat; for plant injury at 31 g/ha: 31 g ai/ha; for plant injury at 125 g/ha: 125 g ai/ha
corn (Zea mays) = experiment: Test A postemergence, corn; assay type: in vivo; conditions: Zea mays, post-emergence, 240 h, 0 to 100 scale (0 no effect, 100 complete control); for Corn plant response rating (crop injury, 0 = no effect, 100 = complete kill) at 31 g/ha: 31 g ai/ha; for Corn plant response rating (crop injury, 0 = no effect, 100 = complete kill) at 125 g/ha: 125 g ai/ha
rice (Oryza sativa) = experiment: Test B flooded paddy test, rice; conditions: Oryza sativa, read-out: Plant response rating, Rice (0 to 100 scale, 0 is no effect, 100 is complete control)
[10] = tested on: pigweed (Amaranthus retroflexus); experiment: Test A preemergence, pigweed; assay type: in vivo; conditions: Amaranthus retroflexus, pre-emergence, 240 h, 0 to 100 scale (0 no effect, 100 complete control), read-out: Plant response rating, Pigweed; for pest or weed control at 31 g/ha: 31 g ai/ha; for pest or weed control at 125 g/ha: 125 g ai/ha
[11] = tested on: barnyardgrass (Echinochloa crus-galli); experiment: Test A postemergence, barnyardgrass; assay type: in vivo; conditions: Echinochloa crus-galli, post-emergence, 240 h, 0 to 100 scale (0 no effect, 100 complete control), read-out: Plant response rating, Barnyardgrass; for pest or weed control at 31 g/ha: 31 g ai/ha; for pest or weed control at 125 g/ha: 125 g ai/ha
[12] = tested on: ryegrass, Italian (Italian ryegrass, Lolium multiflorum); experiment: Test A postemergence, ryegrass, Italian; assay type: in vivo; conditions: Lolium multiflorum, post-emergence, 240 h, 0 to 100 scale (0 no effect, 100 complete control), read-out: Plant response rating, Ryegrass, Italian; for pest or weed control at 31 g/ha: 31 g ai/ha; for pest or weed control at 125 g/ha: 125 g ai/ha
[13] = tested on: ragweed (common ragweed, Ambrosia elatior); experiment: Test A preemergence, ragweed; assay type: in vivo; conditions: Ambrosia artemisiifolia, pre-emergence, 240 h, 0 to 100 scale (0 no effect, 100 complete control), read-out: Plant response rating, Ragweed; for pest or weed control at 31 g/ha: 31 g ai/ha; for pest or weed control at 125 g/ha: 125 g ai/ha
[14] = tested on: ragweed (common ragweed, Ambrosia elatior); experiment: Test A postemergence, ragweed; assay type: in vivo; conditions: Ambrosia artemisiifolia, post-emergence, 240 h, 0 to 100 scale (0 no effect, 100 complete control), read-out: Plant response rating, Ragweed; for pest or weed control at 31 g/ha: 31 g ai/ha; for pest or weed control at 125 g/ha: 125 g ai/ha
[15] = tested on: blackgrass (Alopecurus myosuroides); experiment: Test A postemergence, blackgrass; assay type: in vivo; conditions: Alopecurus myosuroides, post-emergence, 240 h, 0 to 100 scale (0 no effect, 100 complete control), read-out: Plant response rating, Blackgrass; for pest or weed control at 31 g/ha: 31 g ai/ha; for pest or weed control at 125 g/ha: 125 g ai/ha

Compound	pest or weed control at 31 g/ha [1]	pest or weed control at 125 g/ha [1]	pest or weed control at 31 g/ha (kochia (Kochia scoparia) [2])	pest or weed control at 125 g/ha (kochia (Kochia scoparia) [2])	pest or weed control at 250 g/ha [3]	pest or weed control at 31 g/ha (kochia (Kochia scoparia) [4])	pest or weed control at 125 g/ha (kochia (Kochia scoparia) [4])	pest or weed control at 31 g/ha [5]	pest or weed control at 125 g/ha [5]	pest or weed control at 31 g/ha [6]	pest or weed control at 125 g/ha [6]	pest or weed control at 31 g/ha [7]	pest or weed control at 125 g/ha [7]	pest or weed control at 250 g/ha [8]	plant injury at 31 g/ha [9]	plant injury at 125 g/ha [9]	Corn plant response rating (crop injury, 0 = no effect, 100 = complete kill) at 31 g/ha (corn (Zea mays))	Corn plant response rating (crop injury, 0 = no effect, 100 = complete kill) at 125 g/ha (corn (Zea mays))	plant injury at 250 g/ha (rice (Oryza sativa))	pest or weed control at 31 g/ha [10]	further results
FC(F)(F)CCCC1OCc2cccc(Oc3ncc(Cl)cn3)c21 (stereo not shown) [Compound 7, 5-chloro-2-[[1,3-dihydro-3-(4,4,4-trifluorobutyl)-4-isobenzofuranyl]oxy]-pyrimidine]	80%	100%	0%	100%	40%	90%	100%	0%	50%	50%	100%	20%	90%	100%	10%	30%	20%	40%	40%	20%	pest or weed control at 125 g/ha [10]: 100%; pest or weed control at 31 g/ha [11]: 20%; pest or weed control at 125 g/ha [11]: 60%; pest or weed control at 31 g/ha [12]: 20%; pest or weed control at 125 g/ha [12]: 60%; pest or weed control at 31 g/ha [13]: 0%; pest or weed control at 125 g/ha [13]: 0%; pest or weed control at 31 g/ha [14]: 0%; pest or weed control at 125 g/ha [14]: 0%; pest or weed control at 31 g/ha [15]: 10%; pest or weed control at 125 g/ha [15]: 70%
FC(F)(F)CCC1OCc2cccc(Oc3ncc(Cl)cn3)c21 (stereo not shown) [Compound 8, 5-Chloro-2-[[1,3-dihydro-3-(3,3,3-trifluoropropyl)-4-isobenzofuranyl]oxy]pyrimidine]	100%	100%	20%	100%	35%	80%	90%	10%	70%	30%	80%	80%	100%	100%	0%	50%	10%	50%	20%	100%	pest or weed control at 125 g/ha [10]: 100%; pest or weed control at 31 g/ha [11]: 10%; pest or weed control at 125 g/ha [11]: 50%; pest or weed control at 31 g/ha [12]: 10%; pest or weed control at 125 g/ha [12]: 50%; pest or weed control at 31 g/ha [13]: 0%; pest or weed control at 125 g/ha [13]: 10%; pest or weed control at 31 g/ha [14]: 10%; pest or weed control at 125 g/ha [14]: 20%; pest or weed control at 31 g/ha [15]: 30%; pest or weed control at 125 g/ha [15]: 100%
O=C1OC(CCC(F)(F)F)c2c(Oc3ncc(Cl)cn3)cccc21 (stereo not shown) [Compound 4, 4-[(5-Chloro-2-pyrimidinyl)oxy]-3-(3,3,3-trifluoropropyl)-1(3H)-isobenzofuranone]	90%	100%	90%	100%	35%	90%	100%	20%	100%	100%	100%	70%	100%	100%	20%	80%	30%	80%	45%	100%	pest or weed control at 125 g/ha [10]: 100%; pest or weed control at 31 g/ha [11]: 30%; pest or weed control at 125 g/ha [11]: 90%; pest or weed control at 31 g/ha [12]: 20%; pest or weed control at 125 g/ha [12]: 90%; pest or weed control at 31 g/ha [13]: 20%; pest or weed control at 125 g/ha [13]: 70%; pest or weed control at 31 g/ha [14]: 0%; pest or weed control at 125 g/ha [14]: 80%; pest or weed control at 31 g/ha [15]: 40%; pest or weed control at 125 g/ha [15]: 90%
OC1CC(CCCC(F)(F)F)c2c(Oc3ncc(Cl)cn3)cccc21 (stereo not shown) [Compound 10, 4-[(5-Chloro-2-pyrimidinyl)oxy]-2,3-dihydro-3-(4,4,4-trifluorobutyl)-1H-inden-1-ol]	50%	90%	0%	30%	45%	10%	60%	10%	30%	10%	20%	10%	70%	95%	0%	10%	10%	30%	25%	100%	pest or weed control at 125 g/ha [10]: 100%; pest or weed control at 31 g/ha [11]: 10%; pest or weed control at 125 g/ha [11]: 40%; pest or weed control at 31 g/ha [12]: 0%; pest or weed control at 125 g/ha [12]: 30%; pest or weed control at 31 g/ha [13]: 0%; pest or weed control at 125 g/ha [13]: 0%; pest or weed control at 31 g/ha [14]: 0%; pest or weed control at 125 g/ha [14]: 10%; pest or weed control at 31 g/ha [15]: 10%; pest or weed control at 125 g/ha [15]: 20%
